In patent publication US7884105B2, “Squaric acid derivatives as inhibitors of histone deacetylase” (Janssen Pharmaceutica, N.V., priority 2005, dated 2011):

Target: histone deacetylase (HeLa nuclear extracts)
Experiment: In vitro assay for inhibition of histone deacetylase (HDAC Fluorescent Activity Assay, Fluor de Lys)
Format: biochemical
Parameters: key: pIC50 = negative log of IC50
Conditions: HeLa nuclear extracts 60 μg/ml, 75 μM Fluor de Lys substrate, pH 7.4, 30 min
Text: The in vitro assay for inhibition of histone deacetylase (see example C.1) measures the inhibition of HDAC enzymatic activity obtained with the compounds of formula (I).
The HDAC Fluorescent Activity Assay/Drug Discovery Kit of Biomol (cat. No: AK-500-0001) was used. The HDAC Fluorescent Activity Assay is based on the Fluor de Lys (Fluorogenic Histone deAcetylase Lysyl) substrate and developer combination. The Fluor de Lys substrate, comprises an acetylated lysine side chain. Deacetylation of the substrate sensitizes the substrate so that, in the second step, treatment with the Fluor de Lys developer produces a fluorophore.
HeLa nuclear extracts (supplier: Biomol) were incubated at 60 μg/ml with 75 μM of substrate. The Fluor de Lys substrate was added in a buffer containing 25 mM Tris, 137 mM NaCl, 2.7 mM KCl and 1 mM MgCl2.6H2O at pH 7.4. After 30 min, 1 volume of the developer was added. The fluorophore was excited with 355 nm light and the emitted light (450 nm) was be detected on a fluorometric plate reader.
For each experiment, controls (containing HeLa nuclear extract and buffer), a blank incubation (containing buffer but no HeLa nuclear extract) and samples (containing compound dissolved in DMSO and further diluted in buffer and HeLa nuclear extract) were run in parallel. In first instance, compounds were tested at a concentration of 10^−5M. […] All sample were tested 4 times. In each test the blank value was subtracted from both the control and the sample values. The control sample represented 100% of substrate deactylation. For each sample the fluorescence was expressed as a percentage of the mean value of the controls. When appropriate IC50-values (concentration of the drug, needed to reduce the amount of metabolites to 50% of the control) were computed using probit analysis for graded data. Herein the effects of test compounds are expressed as pIC50 (the negative log value of the IC50-value) (see Table F-2).

Q: With `O=C(NO)c1cnc(N2CCN(c3c(NCC4CCN(Cc5ccccc5)C4)c(=O)c3=O)CC2)nc1` (stereo not drawn) [Compound 2] as the molecule, how does the “Enzymatic activity pIC50 C.1.” value read?
A: 6.9

Q: Which “Enzymatic activity pIC50 C.1.” value does the source give for `O=C(NO)c1cnc(N2CCN(c3c(NCCc4ccccn4)c(=O)c3=O)CC2)nc1` [Compound 11] here?
A: 7.0

Q: For `O=C(NO)c1cnc(N2CCN(c3c(NCCNc4ccccc4)c(=O)c3=O)CC2)nc1` [Compound 14], which “Enzymatic activity pIC50 C.1.” value is on record?
A: 6.9

Q: For `O=C(NO)c1cnc(N2CCN(c3c(NCc4cccc(C(F)(F)F)c4)c(=O)c3=O)CC2)nc1` [Compound 12], which “Enzymatic activity pIC50 C.1.” value is on record?
A: 7.2

Q: For `O=C(NO)c1cnc(N2CCN(c3c(NCc4ccco4)c(=O)c3=O)CC2)nc1` [Compound 7], which “Enzymatic activity pIC50 C.1.” value is on record?
A: 7.2

Q: Which “Enzymatic activity pIC50 C.1.” value does the source give for `O=C(NO)c1cnc(N2CCN(c3c(NCCCN4CCCC4=O)c(=O)c3=O)CC2)nc1` [Compound 15] here?
A: 6.8

Q: Which “Enzymatic activity pIC50 C.1.” value does the source give for `O=C(NO)c1cnc(N2CCN(c3c(NCC4(c5ccc(Cl)cc5)CC4)c(=O)c3=O)CC2)nc1` [Compound 8] here?
A: 7.2

Q: Which “Enzymatic activity pIC50 C.1.” value does the source give for `CCN(CC)CCCNc1c(N2CCN(c3ncc(C(=O)NO)cn3)CC2)c(=O)c1=O` [Compound 6] here?
A: 7.2

Q: Which “Enzymatic activity pIC50 C.1.” value does the source give for `CCCCCNc1c(N2CCN(c3ncc(C(=O)NO)cn3)CC2)c(=O)c1=O` [Compound 3] here?
A: 7.6

Q: With `COc1cc(CNc2c(N3CCN(c4ncc(C(=O)NO)cn4)CC3)c(=O)c2=O)cc(OC)c1OC` [Compound 13] as the molecule, how does the “Enzymatic activity pIC50 C.1.” value read?
A: 7.4

Q: Which “Enzymatic activity pIC50 C.1.” value does the source give for `O=C(NO)c1cnc(N2CCN(c3c(Nc4cccc(-c5ccccc5)c4)c(=O)c3=O)CC2)nc1` [Compound 1] here?
A: 7.7

Q: With `O=C(NO)c1cnc(N2CCN(c3c(NCCOc4ccccc4)c(=O)c3=O)CC2)nc1` [Compound 16] as the molecule, how does the “Enzymatic activity pIC50 C.1.” value read?
A: 7.3

Q: For `O=C(NO)c1cnc(N2CCN(c3c(NCCOc4cccc(Cl)c4)c(=O)c3=O)CC2)nc1` [Compound 5], which “Enzymatic activity pIC50 C.1.” value is on record?
A: 7.4

Q: For `O=C(NO)c1cnc(N2CCN(c3c(NCCc4ccccc4)c(=O)c3=O)CC2)nc1` [Compound 10], which “Enzymatic activity pIC50 C.1.” value is on record?
A: 7.1

Q: For `O=C(NO)c1cnc(N2CCN(c3c(NCc4cccnc4)c(=O)c3=O)CC2)nc1` [Compound 9], which “Enzymatic activity pIC50 C.1.” value is on record?
A: 7.0

Q: Which “Enzymatic activity pIC50 C.1.” value does the source give for `O=C(NO)c1cnc(N2CCN(c3c(NC4CCCc5ccccc54)c(=O)c3=O)CC2)nc1` (stereo not drawn) [Compound 4] here?
A: 7.2

Test system: not listed separately
Experiment: Kinetic solubility in aqueous media (nephelometry)
Format: physicochemical
Conditions: aqueous buffer, kinetic from dmso stock; phosphate citrate buffer pH 7.4, dilution of 5 mM DMSO stock, turbidity by nephelometer; read-out: Solubility C.2. score
Method: The solubility of a compound measures the ability of a compound to stay in solution. DMSO-stock solutions are diluted with a single aqueous buffer solvent in 3 consecutive steps. For every dilution turbidity is measured with a nephelometer. (see example C.2).
In the first dilution step, 10 μl of a concentrated stock-solution of the active compound, solubilized in DMSO (5 mM), was added to 100 μl phosphate citrate buffer pH 7.4 and mixed. In the second dilution step, an aliquot (20 μl) of the first dilution step was further dispensed in 100 μl phosphate citrate buffer pH 7.4 and mixed. Finally, in the third dilution step, a sample (20 μl) of the second dilution step was further diluted in 100 μl phosphate citrate buffer pH 7.4 and mixed. All dilutions were performed in 96-well plates. Immediately after the last dilution step the turbidity of the three consecutive dilution steps were measured with a nephelometer. Dilution was done in triplicate for each compound to exclude occasional errors. Based on the turbidity measurements a ranking is performed into 3 classes. Compounds with high solubility obtained a score of 3 and for this compounds the first dilution is clear. Compounds with medium solubility obtained a score of 2. For these compounds the first dilution is unclear and the second dilution is clear. […]

Q: With `O=C(NO)c1cnc(N2CCN(c3c(NCc4cccc(C(F)(F)F)c4)c(=O)c3=O)CC2)nc1` [Compound 12] as the molecule, how does the solubility read?
A: > 454 µM

Q: For `O=C(NO)c1cnc(N2CCN(c3c(NCc4ccco4)c(=O)c3=O)CC2)nc1` [Compound 7], which solubility is on record?
A: > 454 µM
